Assay: Biodistribution of radiolabelled compounds in a Lewis Lung mouse Carcinoma model
Assay type: in vivo
Settings: for % ID/g kidney / % ID/g liver: tail vein injection of radiolabelled compound, excretion profile monitored at 5, 30, 60 and 120 minutes (time point not given)
Procedure: Biodistribution studies were carried out in a Lewis Lung mouse Carcinoma model as described in Bae et al, Drugs Exp Clin Res, 2003; 29 (1): 15-23. Following tail vein injection of the compounds, e the excretion profile was monitored at 5, 30, 60 and 120 minutes.

Row | % ID/g kidney | % ID/g liver | excretion route / biodistribution in comparison to compounds 2 and 3 (tail vein injection, conclusion from Table 1) | Compound
1 | 20 % ID/g | 61 % ID/g | – | NC(=O)C(Cc1ccc(O)c(I)c1)NC(=O)OC(=O)NCCOCCOCCOCCNC(=O)CCN(C1(C(=O)NO)CCCC1)S(=O)(=O)c1ccc(Oc2ccc(F)cc2)cc1 (stereo not shown) [Compound 3]
2 | 7 % ID/g | 71 % ID/g | – | O=C(CCN(C1(C(=O)NO)CCCC1)S(=O)(=O)c1ccc(Oc2ccc(F)cc2)cc1)NCCc1ccc(O)c(I)c1 [Compound 2]
3 | 70 % ID/g | 20 % ID/g | preferably excreted via the renal system | NC(=O)C(Cc1ccc(O)c(I)c1)NC(=O)CCOCCOCCOCCOCCOCCOCCOCCOCCOCCOCCOCCOCCNC(=O)CCOCCOCCOCCOCCOCCOCCOCCOCCOCCOCCOCCOCCNC(=O)CCN(C1(C(=O)NO)CCCC1)S(=O)(=O)c1ccc(Oc2ccc(F)cc2)cc1 (stereo not shown) [Compound 4]
